Assay results: article PMC5642145, “Impact of the structures of macrocyclic Michael acceptors on covalent proteasome inhibition” (Chemical Science, 2017)
Read-outs that look alike come from different tables or passages of the source.

What was measured:
[1] = biological target: T1, β5 subunit of the human constitutive 20S proteasome (Homo sapiens, UniProt P20618+P28074); test: In vitro β5 proteasome inhibitory activity and kinetic constants (Suc-LLVY-AMC, chymotrypsin-like activity); format: biochemical; details: for K′i (apparent β5 subunit inhibitory activity): human erythrocyte 20S proteasome, chymotrypsin-like activity, 37 °C; for kinact/KI: read-out: k assoc (k2/Ki)
T1 construct: human erythrocyte 20S; purchased R&D Systems, Inc; host or cells: human erythrocytes (native, purified from tissue)
Description: First, the effect of modifying the macrocycle was investigated for 1–3 by analyzing the inhibitory activity of the β5 subunit of the human constitutive 20S proteasome. […] The k 2/K i ratio represents the second-order rate constant for the reaction of the inhibitor with the target (k assoc), and it indicates the overall inhibitory potency of the inhibitor.
4) Evaluation of in vitro β5 proteasome inhibitory activity and determination of kinetic […]
In vitro proteasome inhibitory activity was measured on 96-well microtiter plates using human erythrocyte 20S proteasome (R&D Systems, Inc.) with the AK-740 Assay Kit for Drug Discovery (Biomol). Reactions were performed at 37 °C in 100 μ L volu mes containing a serial dilution of test samples, 2 μ g/mL 20S proteasome, and 100 μM Suc-L LV Y -AMC for assaying chymotrypsin-like activity, according to the manufacture’s instructions.
Fluorescence was monitored with an infinite M200 microplate reader (Tecan) equipped with 360 nm excitation and […]
The observed rate constant for inhibition, kobs, at each concentration was determined fro m the slope of a semi-logarithmic plot of inhibition versus […]
equation, k obs = k 2[I]/(K i+[I]), to obtain values for Ki and k2. The k2/Ki ratio represents the second -order rate constant for the reaction of the inhibitor with the target. S7)

[2] = system: human myeloma Amo-1 cells; test: Anti-proliferation activity against Amo-1 cells (CCK-8); format: cell-based
Protocol: 5) Evaluation of anti -proliferation activity against Amo- 1cells
Cell proliferation assays were performed using the Cell Counting Kit-8 (CCK-8) (Dojindo, CK04) according to the manufacturer’s protocol. In brief, Amo- 1 cells were cultured in RPMI1640 medium containing 10% FBS and 1% penicillin -strepto myc in.
After culturing for 24 h at 37 °C under atmosphere of 5% CO2, the cells were treated with a solution of the compound in DMSO (1 µL) at 37 °C for 72 h. A solution of the CCK-8 (10 µL) was then added to each well and the cells were incubated at 37 °C for 3 h. The absorbance at 450 nm was measured using an Infinite M200 PRO multimode microplate reader (Tecan). The data points were calculated from the average (±standard deviation) of three assays […]
(IC 50) were calculated from curves constructed by plotting cell proliferation (%) versus the log of compound […]
(1 picture or pasted object on this page, not shown here)

[3] = from fit kobs = k2[I]/(Ki + [I])
[4] = second-order rate constant, k2/Ki ratio
[5] = AMO1, Amo-1 cells, 72 h, CCK-8, read-out: IC50 (cell proliferation)

| Compound | k 2 [1, 3] | K′i (apparent β5 subunit inhibitory activity) [1] | Ki [1, 3] | kinact/KI [1, 4] | also measured |
| --- | --- | --- | --- | --- | --- |
| CC(C)[C@H](NC(=O)N[C@H](C(=O)N[C@H]1C/C=C/CNC(=O)/C=C/[C@H](C(C)C)NC1=O)C(C)C)C(=O)O [Isosyringolin A (3), Isosyringolin A] | 0.00339 s⁻¹ | 590 nM |  |  | kinact/KI [1]: 166 M⁻¹ s⁻¹ |
| CC(C)[C@H](NC(=O)N[C@H](C(=O)N[C@H]1/C=C/CCNC(=O)/C=C/[C@H](C(C)C)NC1=O)C(C)C)C(=O)O [Syringolin A (1), Syringolin A, reference compound] | 0.00391 s⁻¹ | 170 nM |  |  | k 2 ([1]; as printed in text in s^–1): 3.91 × 10^–3 s^–1; kinact/KI [1]: 1770 M⁻¹ s⁻¹ |
| CCCCCCCCCC(=O)N[C@@H](Cc1ccccc1)C(=O)N[C@H]1/C=C/CCNC(=O)/C=C/[C@H](C(C)C)NC1=O [analogue 4] |  |  |  |  | IC50 ([2]; AMO1, 72 h, read-out: IC50 (cell proliferation)): 4.33 ± 1.6 nM |
| CCCCCCCCCC(=O)N[C@@H](Cc1ccccc1)C(=O)N[C@H]1/C=C/CNC(=O)/C=C/[C@H](C(C)C)NC1=O [analogue 8] | 0.00551 s⁻¹ | 20.6 nM | 432 nM | 12800 M⁻¹ s⁻¹ | K i, decrease in affinity relative to 4 ([1]; decrease relative to 4): 6.3 fold; k 2 relative to 4 ([1]; greater than that of the 12-membered 4): 1.29 fold; IC50 [2, 5]: 26.3 ± 9.3 nM |
| CCCCCCCCCC(=O)N[C@@H](Cc1ccccc1)C(=O)N[C@H]1CCCNC(=O)/C=C/[C@H](C(C)C)NC1=O [analogue 9] | 0.00365 s⁻¹ | 48.2 nM | 547 nM | 6670 M⁻¹ s⁻¹ |  |
| CCCCCCCCCC(=O)N[C@@H](Cc1ccc(-c2ccccc2)cc1)C(=O)N[C@H]1/C=C/CNC(=O)/C=C/[C@H](C(C)C)NC1=O [analogue 14] | 0.00428 s⁻¹ | 0.77 nM | 42.2 nM | 101000 M⁻¹ s⁻¹ | k assoc (k2/Ki) [1, 4]: 101422 s^–1 M^–1; IC50 [2, 5]: 12.1 nM |

Further lines, with some results ahead:

| k 2 [1, 3] | K′i (apparent β5 subunit inhibitory activity) [1] | Ki [1, 3] | kinact/KI [1, 4] | Compound | also measured |
| --- | --- | --- | --- | --- | --- |
| 0.00134 s⁻¹ | 79.2 nM | 527 nM | 2550 M⁻¹ s⁻¹ | CCCCCCCCCC(=O)N[C@@H](Cc1ccccc1)C(=O)N[C@H]1CC/C=C/CNC(=O)/C=C/[C@H](C(C)C)NC1=O [analogue 10] |  |
| 0.000875 s⁻¹ | 320 nM | 1230 nM | 713 M⁻¹ s⁻¹ | CCCCCCCCCC(=O)N[C@@H](Cc1ccccc1)C(=O)N[C@H]1C/C=C/CCNC(=O)/C=C/[C@H](C(C)C)NC1=O [analogue 11] |  |
| 0.00203 s⁻¹ | 402 nM | 9090 nM | 224 M⁻¹ s⁻¹ | CCCCCCCCCC(=O)N[C@@H](Cc1ccccc1)C(=O)N[C@H]1CCCCCNC(=O)/C=C/[C@H](C(C)C)NC1=O [analogue 12] |  |
|  | >1000 nM |  |  | C=CC[C@H](NC(=O)[C@H](Cc1ccccc1)NC(=O)CCCCCCCCC)C(=O)N[C@H](/C=C/C(=O)NC)C(C)C [analogue 13] | inhibitory activity ([1]; β5 subunit): no inhibitory activity |
